Experimental data published in patent publication US8877748B2, “Heterocyclic fused anthraquinone derivatives, manufacturing method and pharmaceutical composition using thereof” (National Defense Medical Center, priority 2012, dated 2014).

Experiments:
[1] = tested on: PC-3 prostate cancer cell line; assay: SRB assay cell viability, PC-3 prostate cancer cell line; type: cell-based, human; details: Homo sapiens, PC-3 prostate cancer cell line, Table II prints no unit, μM printed, read-out: SRB assay: 50% inhibition of cancer cell proliferation of sample concentration (IC50) of PC-3 prostate cancer cell line

With Cc1ccc(Oc2cc3c(c4nsnc24)C(=O)c2ccccc2C3=O)cc1 the melting point was 244 to 245 °C.

O=C1c2ccccc2C(=O)c2c1cc(S(=O)(=O)[O-])c1nsnc21.[Na+] [C3, Sodium 6,11-dioxo-6,11-dihydroanthra[2,1-c][1,2,5]thiadiazole-4-sulfonate] gave an IC50 [1] of 13.3 µM and a melting point of 293 to 295 °C.

Molecule CCN(CC)c1cc2c(c3nsnc13)C(=O)c1ccccc1C2=O [C5, 4-(diethylamino)anthra[2,1-c][1,2,5] thiadiazol-6,11-dione] has an IC50 [1] of 1.1 µM and a melting point of 204 to 205 °C.
